From ChEMBL document CHEMBL1201862, “PubChem BioAssay data set” (2004)
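Protocol summary: plate cells (96-well), add compound at 5 concentrations, incubate 48 h, interpolate endpoints linearly. The concentration for 50% growth inhibition is given as GI50.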 Calls of active or inactive are those of the source. Rule as the data show it: active = GI50 up to about 1.1 µM and inactive = higher.

Assays:
Assay in all cases: NCI tumour cell line growth inhibition, 48 h
SF-268 = test system: SF-268
NCI/ADR-RES = test system: NCI/ADR-RES
SF-539 = test system: SF-539
SN12C = test system: SN12C
SNB-75 = test system: SNB-75
HOP-62 = test system: HOP-62
NCI-H23 = test system: NCI-H23
RPMI-8226 = test system: RPMI-8226
SW-620 = test system: SW-620
ACHN = test system: ACHN
UACC-62 = test system: UACC-62
OVCAR-8 = test system: OVCAR-8
K562 = test system: K562
NCI-H522 = test system: NCI-H522
MCF7 = test system: MCF7
SK-MEL-28 = test system: SK-MEL-28
A549 = test system: A549
SR = test system: SR
SK-OV-3 = test system: SK-OV-3
MDA-MB-231 = test system: MDA-MB-231

Structure (SMILES)	GI50 (SF-268)	GI50 (NCI/ADR-RES)	GI50 (SF-539)	GI50 (SN12C)	GI50 (SNB-75)	GI50 (HOP-62)	GI50 (NCI-H23)	GI50 (RPMI-8226)	GI50 (SW-620)	GI50 (ACHN)	GI50 (UACC-62)	GI50 (OVCAR-8)	GI50 (K562)	GI50 (NCI-H522)	GI50 (MCF7)	GI50 (SK-MEL-28)	GI50 (A549)	GI50 (SR)	GI50 (SK-OV-3)	GI50 (MDA-MB-231)
[N-]=[N+]=NCc1cccc(Nc2cc(=O)[nH]c(=O)[nH]2)c1	> 100 µM (inactive)	> 100 µM (inactive)	> 100 µM (inactive)	> 100 µM (inactive)	> 100 µM (inactive)	> 100 µM (inactive)	> 100 µM (inactive)	> 100 µM (inactive)	> 100 µM (inactive)	> 100 µM (inactive)	> 100 µM (inactive)	> 100 µM (inactive)	> 100 µM (inactive)	> 100 µM (inactive)	> 100 µM (inactive)	> 100 µM (inactive)	> 100 µM (inactive)	> 100 µM (inactive)	> 100 µM (inactive)	
CC1(C)CC23C4COC(=O)C2CCC1C3CC4=O (stereo not drawn)	10.6 µM (inactive)	7.21 µM (inactive)	19.5 µM (inactive)	15.8 µM (inactive)	19.8 µM (inactive)	24.4 µM (inactive)	3.27 µM (inactive)	5.28 µM (inactive)	3.04 µM (inactive)		10.5 µM (inactive)	10 µM (inactive)	9.84 µM (inactive)	3.32 µM (inactive)	19.5 µM (inactive)	6.12 µM (inactive)	19.1 µM (inactive)		39.3 µM (inactive)	
Cn1nc(C(=O)N2CC(CCl)c3c2cc(N)c2ccccc32)cc1NC(=O)Nc1cc(C(=O)N2CC(CCl)c3c2cc(N)c2ccccc32)nn1C (stereo not drawn)	0.0275 µM (active)	> 100 µM (inactive)	0.016 µM (active)	0.0323 µM (active)	0.0185 µM (active)	0.682 µM (active)	0.0225 µM (active)	3.3 µM (inactive)	0.0271 µM (active)	0.508 µM (active)	0.107 µM (active)	0.249 µM (active)	0.231 µM (active)			0.108 µM (active)	0.499 µM (active)	< 0.01 µM (active)	0.3 µM (active)	0.243 µM (active)
CC(C)(C)C1=NO[C@H]2[C@@H](NC(=O)c3ccccc3)CC[C@@H]12	> 100 µM (inactive)		> 100 µM (inactive)	> 100 µM (inactive)	38.3 µM (inactive)	> 100 µM (inactive)	> 100 µM (inactive)	> 100 µM (inactive)	> 100 µM (inactive)	> 100 µM (inactive)	> 100 µM (inactive)	> 100 µM (inactive)	> 100 µM (inactive)	> 100 µM (inactive)		> 100 µM (inactive)	> 100 µM (inactive)	> 100 µM (inactive)	> 100 µM (inactive)	
CC(=O)OC(C)(C)C[N+](=O)[O-]	> 100 µM (inactive)		> 100 µM (inactive)	> 100 µM (inactive)	> 100 µM (inactive)	> 100 µM (inactive)	> 100 µM (inactive)	> 100 µM (inactive)	> 100 µM (inactive)	> 100 µM (inactive)		> 100 µM (inactive)	> 100 µM (inactive)	63.4 µM (inactive)		> 100 µM (inactive)	> 100 µM (inactive)	> 100 µM (inactive)	> 100 µM (inactive)	
NC(=O)OCC1=C(COC(N)=O)C(=O)c2c(O)ccc(O)c2C1=O	> 100 µM (inactive)		> 100 µM (inactive)	> 100 µM (inactive)	> 100 µM (inactive)	> 100 µM (inactive)	> 100 µM (inactive)	> 100 µM (inactive)	61.1 µM (inactive)	> 100 µM (inactive)	27.3 µM (inactive)	> 100 µM (inactive)	61.9 µM (inactive)	> 100 µM (inactive)		> 100 µM (inactive)	> 100 µM (inactive)	> 100 µM (inactive)	> 100 µM (inactive)	
O=C(NCCCNC(=O)c1ccc2cc(O)c(O)cc2c1)c1ccc2cc(O)c(O)cc2c1	28.8 µM (inactive)	> 100 µM (inactive)	16.5 µM (inactive)		22.8 µM (inactive)	25.1 µM (inactive)	22.5 µM (inactive)	29.3 µM (inactive)	43 µM (inactive)	23.9 µM (inactive)	20 µM (inactive)	35.2 µM (inactive)	33.7 µM (inactive)	29.6 µM (inactive)	30.9 µM (inactive)	40.4 µM (inactive)	69.8 µM (inactive)	25.3 µM (inactive)		
[O-][n+]1ccccc1S [PYRITHIONE ZINC]	1.03 µM (active)		1.97 µM (inactive)	1.87 µM (inactive)	3.03 µM (inactive)	4.34 µM (inactive)	1.21 µM (inactive)	0.1 µM (active)	0.161 µM (active)	3.21 µM (inactive)	0.604 µM (active)	3.01 µM (inactive)	0.107 µM (active)	0.107 µM (active)		1.97 µM (inactive)	1.55 µM (inactive)	0.168 µM (active)	17.4 µM (inactive)	
